According to ChEMBL document CHEMBL4765237, “Structural optimization and structure-activity relationship studies of N-phenyl-7,8-dihydro-6H-pyrimido[5,4-b][1,4]oxazin-4-amine derivatives as a new class of inhibitors of RET and its drug resistance mutants” (Eur J Med Chem, 2018):
pIC50: −log10 of the molar value. Active and inactive are the calls of the source. The rule behind the calls is not given here.

Experiments:
[1] = target: Mitogen-activated protein kinase kinase kinase 20 (Homo sapiens, UniProt Q9NYL2); assay: Inhibition of recombinant full-length human ZAK using MBP as substrate incubated for 40 mins in presence of [gamma33P]ATP by scintillation counting based radiometry assay
Angiopoietin-1 receptor = Angiopoietin-1 receptor (Homo sapiens, UniProt Q02763); assay: Inhibition of recombinant human TIE2 (771 to end residues) using poly(Glu, Tyr) 4:1 as substrate incubated for 40 mins in presence of [gamma33P]ATP by scintillation counting based radiometry assay
Chain of Angiopoietin-1 receptor (Q02763 whole entry): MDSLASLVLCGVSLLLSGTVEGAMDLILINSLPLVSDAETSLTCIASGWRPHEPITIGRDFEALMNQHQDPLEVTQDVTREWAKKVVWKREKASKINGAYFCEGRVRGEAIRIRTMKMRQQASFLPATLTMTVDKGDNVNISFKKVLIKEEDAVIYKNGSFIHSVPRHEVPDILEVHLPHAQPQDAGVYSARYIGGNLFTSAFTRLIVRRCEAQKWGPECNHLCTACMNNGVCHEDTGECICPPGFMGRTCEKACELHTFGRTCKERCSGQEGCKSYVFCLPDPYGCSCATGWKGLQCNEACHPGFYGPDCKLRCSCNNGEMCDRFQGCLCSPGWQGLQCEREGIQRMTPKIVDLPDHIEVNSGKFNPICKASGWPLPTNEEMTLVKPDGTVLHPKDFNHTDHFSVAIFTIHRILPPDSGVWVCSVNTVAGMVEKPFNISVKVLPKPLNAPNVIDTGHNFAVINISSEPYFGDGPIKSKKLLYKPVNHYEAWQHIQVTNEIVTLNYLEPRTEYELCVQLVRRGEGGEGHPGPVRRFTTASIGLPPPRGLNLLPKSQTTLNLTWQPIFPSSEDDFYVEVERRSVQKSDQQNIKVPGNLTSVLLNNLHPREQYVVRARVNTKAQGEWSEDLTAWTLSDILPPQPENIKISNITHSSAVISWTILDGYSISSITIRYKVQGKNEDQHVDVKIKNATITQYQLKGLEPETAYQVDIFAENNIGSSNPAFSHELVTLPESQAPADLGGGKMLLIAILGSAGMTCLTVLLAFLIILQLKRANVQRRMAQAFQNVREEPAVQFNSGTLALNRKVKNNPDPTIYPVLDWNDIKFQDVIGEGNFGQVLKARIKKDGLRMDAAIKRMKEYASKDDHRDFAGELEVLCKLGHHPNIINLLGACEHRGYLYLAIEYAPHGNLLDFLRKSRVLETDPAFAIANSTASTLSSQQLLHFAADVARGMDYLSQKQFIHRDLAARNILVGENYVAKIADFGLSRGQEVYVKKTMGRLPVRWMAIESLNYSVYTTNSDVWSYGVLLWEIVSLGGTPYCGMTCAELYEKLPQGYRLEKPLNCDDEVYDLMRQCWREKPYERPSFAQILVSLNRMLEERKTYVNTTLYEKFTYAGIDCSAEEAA

Mus musculus [2] = species: Mus musculus; details: NOD-SCID, dose 30.0 mg/kg, time 18.0 day
Mus musculus [3] = species: Mus musculus; details: NOD-SCID, dose 30.0 mg/kg, time 18.0 day; remark: listed apart in the source
[4] = target: Serine/threonine-protein kinase TAO2 (Homo sapiens, UniProt Q9UL54); assay: Inhibition of recombinant human TAO2 (1 to 320 residues) using myelin basic protein as substrate incubated for 40 mins in presence of [gamma33P]ATP by scintillation counting based radiometry assay
Mus musculus [5] = species: Mus musculus; details: NOD-SCID, dose 30.0 mg/kg, time 18.0 day; remark: listed apart in the source
HeLa = assay: Growth inhibition of human HeLa cells incubated for 3 days by MTT assay; type: functional; details: 72 h, time 3 day
[6] = target: Mitogen-activated protein kinase 13 (Homo sapiens, UniProt O15264); assay: Inhibition of recombinant human full length SAPK4 using myelin basic protein as substrate incubated for 40 mins in presence of [gamma33P]ATP by scintillation counting based radiometry assay
[7] = target: Fibroblast growth factor receptor 1 (Homo sapiens, UniProt P11362)
[8] = target: Vascular endothelial growth factor receptor 2 (Homo sapiens, UniProt P35968); assay: Inhibition of human KDR (790 to end residues) using myelin basic protein as substrate after 40 mins by [gamma-33ATP] radiometric assay
[9] = Growth inhibition of human HTH-83 cells incubated for 3 days by MTT assay; type: functional; details: HTh83, 72 h, time 3 day
[10] = target: BDNF/NT-3 growth factors receptor (Homo sapiens, UniProt Q16620); assay: Inhibition of recombinant human TRKB (455 to end residues) using poly(Glu, Tyr) 4:1 as substrate incubated for 40 mins in presence of [gamma33P]ATP by scintillation counting based radiometry assay
Chain of BDNF/NT-3 growth factors receptor (Q16620 whole entry, the tested form may be a part): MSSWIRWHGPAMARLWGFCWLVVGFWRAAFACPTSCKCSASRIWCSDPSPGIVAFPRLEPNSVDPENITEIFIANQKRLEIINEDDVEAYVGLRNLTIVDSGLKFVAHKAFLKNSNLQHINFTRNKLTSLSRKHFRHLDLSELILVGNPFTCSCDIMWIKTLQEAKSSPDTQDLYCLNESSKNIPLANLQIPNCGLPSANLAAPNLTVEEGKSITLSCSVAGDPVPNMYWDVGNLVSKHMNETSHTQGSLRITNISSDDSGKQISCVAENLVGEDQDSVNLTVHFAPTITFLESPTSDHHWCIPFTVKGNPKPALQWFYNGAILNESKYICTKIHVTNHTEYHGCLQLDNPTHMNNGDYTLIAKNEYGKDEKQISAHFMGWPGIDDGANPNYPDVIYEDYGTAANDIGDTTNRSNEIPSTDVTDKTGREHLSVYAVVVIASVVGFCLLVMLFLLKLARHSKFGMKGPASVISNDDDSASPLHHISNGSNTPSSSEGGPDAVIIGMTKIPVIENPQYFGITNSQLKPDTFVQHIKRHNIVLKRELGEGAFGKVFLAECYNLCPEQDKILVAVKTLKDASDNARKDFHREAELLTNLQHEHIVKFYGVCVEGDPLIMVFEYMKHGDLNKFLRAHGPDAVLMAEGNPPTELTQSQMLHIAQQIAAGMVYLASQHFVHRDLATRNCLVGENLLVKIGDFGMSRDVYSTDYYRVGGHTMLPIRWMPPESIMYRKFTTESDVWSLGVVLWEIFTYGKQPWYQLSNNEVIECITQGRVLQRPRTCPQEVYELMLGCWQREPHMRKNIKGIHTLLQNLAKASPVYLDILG

Ephrin type-A receptor 2 = Ephrin type-A receptor 2 (Homo sapiens, UniProt P29317); assay: Inhibition of recombinant human EphA2 (596 to 900 residues) using poly(Glu, Tyr) 4:1 as substrate incubated for 40 mins in presence of [gamma-33ATP] by scintillation counting based radiometry assay
Chain of Ephrin type-A receptor 2 (P29317 whole entry, the tested form may be a part): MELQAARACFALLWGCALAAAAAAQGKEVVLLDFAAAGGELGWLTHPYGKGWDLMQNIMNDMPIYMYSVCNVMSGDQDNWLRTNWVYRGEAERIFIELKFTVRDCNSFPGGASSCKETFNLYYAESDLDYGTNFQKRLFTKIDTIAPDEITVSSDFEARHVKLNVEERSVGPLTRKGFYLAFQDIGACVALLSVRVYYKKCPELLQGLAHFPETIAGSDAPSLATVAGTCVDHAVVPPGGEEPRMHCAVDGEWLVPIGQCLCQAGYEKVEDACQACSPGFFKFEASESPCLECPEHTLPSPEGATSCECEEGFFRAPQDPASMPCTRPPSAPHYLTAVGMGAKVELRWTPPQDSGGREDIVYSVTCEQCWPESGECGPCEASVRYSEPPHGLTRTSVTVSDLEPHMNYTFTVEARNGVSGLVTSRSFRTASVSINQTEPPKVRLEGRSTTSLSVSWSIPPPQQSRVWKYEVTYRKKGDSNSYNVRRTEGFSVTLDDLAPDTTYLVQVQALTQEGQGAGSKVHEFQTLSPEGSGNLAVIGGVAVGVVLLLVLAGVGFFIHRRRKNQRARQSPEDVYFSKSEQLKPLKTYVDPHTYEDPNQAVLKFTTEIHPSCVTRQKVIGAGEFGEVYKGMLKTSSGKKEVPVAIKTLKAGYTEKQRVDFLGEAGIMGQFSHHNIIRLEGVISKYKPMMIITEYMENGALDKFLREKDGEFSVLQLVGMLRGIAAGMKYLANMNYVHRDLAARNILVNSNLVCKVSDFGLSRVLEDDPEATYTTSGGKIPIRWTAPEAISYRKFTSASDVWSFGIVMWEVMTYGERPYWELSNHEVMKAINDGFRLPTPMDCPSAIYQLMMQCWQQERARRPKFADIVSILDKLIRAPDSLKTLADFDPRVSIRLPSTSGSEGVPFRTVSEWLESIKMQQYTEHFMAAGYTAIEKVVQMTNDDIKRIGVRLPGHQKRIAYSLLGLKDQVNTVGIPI

[11] = Clearance in Sprague-Dawley rat at 10 mg/kg, po measured upto 24 hrs by LC-MS/MS analysis; type: ADME, organism-based; details: in vivo
[12] = Growth inhibition of mouse L929 cells incubated for 3 days by MTT assay; type: cell-based; details: time 3 day
HepG2 = assay: Growth inhibition of human HepG2 cells incubated for 3 days by MTT assay; type: functional; details: HepG2, 72 h, time 3 day
[13] = target: Tyrosine-protein kinase Lyn (Homo sapiens, UniProt P07948); assay: Inhibition of recombinant human Lyn using poly(Glu, Tyr) 4:1 as substrate after 40 mins in presence of [gamma-33ATP] by scintillation counting based radiometry assay
BaF3 [14] = assay: Growth inhibition of mouse BaF3 cells harboring RET V804M mutant incubated for 3 days by MTT assay; type: functional; details: BaF3, 72 h, time 3 day
DU-145 = assay: Growth inhibition of human DU-145 cells incubated for 3 days by MTT assay; type: functional; details: DU-145, 72 h, time 3 day
[15] = Growth inhibition of […] NIH3T3 cells incubated for 3 days by MTT assay; type: functional; details: NIH3T3, 72 h; time 3 day
[16] = target: Mitogen-activated protein kinase kinase kinase 7 (Homo sapiens, UniProt O43318); assay: Inhibition of recombinant human TAK1 (1 to 303 residues) using casein as substrate incubated for 40 mins in presence of [gamma33P]ATP by scintillation counting based radiometry assay
BaF3 [17] = assay: Growth inhibition of mouse BaF3 cells over expressing wild type RET incubated for 3 days by MTT assay; type: functional; details: BaF3, 72 h, time 3 day
CDK9/cyclin T1 = CDK9/cyclin T1 (Homo sapiens, UniProt P50750); assay: Inhibition of recombinant full length human CDK9/cyclinT1 using KTFCGTPEYLAPE as substrate incubated for 40 mins in presence of [gamma-33ATP] by scintillation counting based radiometry assay; type: protein-complex assay
BaF3 [18] = assay: Growth inhibition of mouse BaF3 cells incubated for 3 days by MTT assay; type: functional; details: BaF3, 72 h, time 3 day
MDA-MB-231 = assay: Growth inhibition of human MDA-MB-231 cells incubated for 3 days by MTT assay; type: functional; details: MDA-MB-231, 72 h, time 3 day
[19] = Volume of distribution at steady state in Sprague-Dawley rat at 10 mg/kg, po measured upto 24 hrs by LC-MS/MS analysis; type: ADME, organism-based; details: in vivo
[20] = Half life in Sprague-Dawley rat at 10 mg/kg, po measured upto 24 hrs by LC-MS/MS analysis; type: ADME, organism-based; details: in vivo
[21] = target: Serine/threonine-protein kinase B-raf (Homo sapiens, UniProt P15056); assay: Inhibition of recombinant full length human B-Raf (416 to end residues) using myelin basic protein substrate incubated for 40 mins in presence of [gamma-33ATP] by scintillation counting based radiometry assay
BaF3 [22] = type: functional; details: Mus musculus, BaF3, 72 h; time 3 day
[23] = target: Discoidin domain-containing receptor 2 (Homo sapiens, UniProt Q16832); assay: Inhibition of recombinant human DDR2 (467 to end residues) using KKSRGDYMTMQIG as substrate incubated for 40 mins in presence of [gamma-33ATP] by scintillation counting based radiometry assay
[24] = target: Serine/threonine-protein kinase WNK3 (Homo sapiens, UniProt Q9BYP7); assay: Inhibition of recombinant human WNK3 (1 to 434 residues) using myelin basic protein as substrate incubated for 40 mins in presence of [gamma33P]ATP by scintillation counting based radiometry assay
[25] = target: RAF proto-oncogene serine/threonine-protein kinase (Homo sapiens, UniProt P04049); assay: Inhibition of recombinant human C-Raf (306 to end residues) poly(Glu, Tyr) 4:1 as substrate incubated 40 mins in presence of [gamma-33ATP] by scintillation counting based radiometry assay
Chain of RAF proto-oncogene serine/threonine-protein kinase (P04049 whole entry): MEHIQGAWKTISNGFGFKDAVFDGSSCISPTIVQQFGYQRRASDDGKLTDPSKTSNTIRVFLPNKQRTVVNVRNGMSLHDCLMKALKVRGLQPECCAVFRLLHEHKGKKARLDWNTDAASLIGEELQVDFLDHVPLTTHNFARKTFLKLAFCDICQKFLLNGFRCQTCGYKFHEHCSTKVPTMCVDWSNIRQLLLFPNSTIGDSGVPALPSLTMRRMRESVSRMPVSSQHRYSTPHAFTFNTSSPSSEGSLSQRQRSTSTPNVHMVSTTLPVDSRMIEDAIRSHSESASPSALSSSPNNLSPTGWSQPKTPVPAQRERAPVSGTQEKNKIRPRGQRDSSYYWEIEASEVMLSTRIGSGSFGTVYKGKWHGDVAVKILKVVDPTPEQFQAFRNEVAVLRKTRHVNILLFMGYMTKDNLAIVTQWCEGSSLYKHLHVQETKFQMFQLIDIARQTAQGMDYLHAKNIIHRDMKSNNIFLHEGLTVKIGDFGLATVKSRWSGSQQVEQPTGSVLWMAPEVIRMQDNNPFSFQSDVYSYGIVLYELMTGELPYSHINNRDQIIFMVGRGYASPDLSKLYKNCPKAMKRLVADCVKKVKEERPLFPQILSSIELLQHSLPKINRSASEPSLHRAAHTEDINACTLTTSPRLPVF

Aurora kinase B = Aurora kinase B (Homo sapiens, UniProt Q96GD4); assay: Inhibition of recombinant full length human Aurora B using AKRRRLSSLRA as substrate incubated for 40 mins in presence of [gamma-33ATP] by scintillation counting based radiometry assay
[26] = target: Vascular endothelial growth factor receptor 3 (Homo sapiens, UniProt P35916); assay: Inhibition of recombinant human FLT4 (800 to end residues) using GGEEEEYFELVKKKK as substrate incubated for 40 mins in presence of [gamma-33ATP] by scintillation counting based radiometry assay
Chain of Vascular endothelial growth factor receptor 3 (P35916 whole entry): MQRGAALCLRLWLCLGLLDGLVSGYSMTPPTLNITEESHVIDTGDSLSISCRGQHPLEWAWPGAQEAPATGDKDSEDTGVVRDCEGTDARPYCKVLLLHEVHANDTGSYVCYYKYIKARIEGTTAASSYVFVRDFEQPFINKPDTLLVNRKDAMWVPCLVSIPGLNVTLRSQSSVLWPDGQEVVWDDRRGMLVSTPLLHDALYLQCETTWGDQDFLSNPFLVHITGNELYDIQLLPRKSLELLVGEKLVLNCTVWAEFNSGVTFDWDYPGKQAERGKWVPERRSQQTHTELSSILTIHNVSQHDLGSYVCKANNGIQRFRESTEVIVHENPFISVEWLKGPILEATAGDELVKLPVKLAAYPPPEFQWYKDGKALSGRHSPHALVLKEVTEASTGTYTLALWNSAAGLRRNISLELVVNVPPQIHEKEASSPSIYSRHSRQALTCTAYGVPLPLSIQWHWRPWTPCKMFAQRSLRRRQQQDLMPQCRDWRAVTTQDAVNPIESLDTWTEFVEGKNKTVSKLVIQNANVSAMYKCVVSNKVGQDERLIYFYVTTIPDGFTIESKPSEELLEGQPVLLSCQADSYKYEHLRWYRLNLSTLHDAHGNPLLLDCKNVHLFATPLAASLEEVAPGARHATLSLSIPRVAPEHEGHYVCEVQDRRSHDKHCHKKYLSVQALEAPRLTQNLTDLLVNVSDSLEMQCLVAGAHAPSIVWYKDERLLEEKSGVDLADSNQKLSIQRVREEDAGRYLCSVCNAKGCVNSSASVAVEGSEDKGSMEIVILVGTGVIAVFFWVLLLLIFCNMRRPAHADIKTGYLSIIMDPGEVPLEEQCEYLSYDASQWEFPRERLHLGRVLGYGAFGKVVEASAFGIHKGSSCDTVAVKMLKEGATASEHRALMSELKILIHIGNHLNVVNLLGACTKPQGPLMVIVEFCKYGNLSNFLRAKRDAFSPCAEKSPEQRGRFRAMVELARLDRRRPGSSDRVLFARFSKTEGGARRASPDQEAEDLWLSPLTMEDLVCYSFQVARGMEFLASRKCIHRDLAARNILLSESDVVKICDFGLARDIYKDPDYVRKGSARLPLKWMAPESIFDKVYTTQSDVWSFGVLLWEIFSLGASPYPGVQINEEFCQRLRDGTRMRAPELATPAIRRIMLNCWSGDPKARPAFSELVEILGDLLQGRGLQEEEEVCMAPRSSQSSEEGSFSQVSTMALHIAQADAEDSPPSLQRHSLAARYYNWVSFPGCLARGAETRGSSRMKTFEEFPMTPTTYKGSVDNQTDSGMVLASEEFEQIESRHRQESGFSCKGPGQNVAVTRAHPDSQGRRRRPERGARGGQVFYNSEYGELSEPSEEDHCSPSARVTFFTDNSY

[27] = Inhibition of colony formation in […] NIH3T3 cells at > 1 uM incubated for 10 days by crystal violet assay relative to control; type: functional; details: dose microM >1; time 10 day

SMILES: CC(C)(C)c1cc(NC(=O)Nc2ccc(Nc3ncnc4c3OCCCN4)cc2)no1
- pIC50 [1]: 7.72
- pIC50 (Angiopoietin-1 receptor): 6.39
- inhibition (Mus musculus [2]): Active
- inhibition (Mus musculus [3]): Active
- pIC50 [4]: 6.04
- inhibition (Mus musculus [5]): Active
- GI50 (HeLa): > 10000 nM
- pIC50 [6]: 6.67
- pIC50 [7]: 6.06
- pIC50 [8]: 6.05
- GI50 [9]: > 10000 nM
- pIC50 [10]: 7.17
- pIC50 (Ephrin type-A receptor 2): 6.98
- CL/F [11]: 0.383 mL/min/kg
- GI50 at 72 h [12]: > 10000 nM
- GI50 (HepG2): > 10000 nM
- pIC50 [13]: 6.91
- GI50 (BaF3 [14]): 930 nM
- GI50 (DU-145): > 10000 nM
- GI50 [15]: > 10000 nM
- pIC50 [16]: 6.32
- GI50 (BaF3 [17]): 100 nM
- pIC50 (CDK9/cyclin T1): 6.08
- GI50 (BaF3 [18]): > 10000 nM
- GI50 (MDA-MB-231): > 10000 nM
- Vdss [19]: 0.05 L/kg
- half-life [20]: 1.54 h
- pIC50 [21]: 6.02
- GI50 (BaF3 [22]): 1130 nM
- pIC50 [23]: 7.26
- pIC50 [24]: 6.31
- pIC50 [25]: 6.63
- pIC50 (Aurora kinase B): 5.79
- pIC50 [26]: 8.22
- inhibition (INH) [27]: 100%
